Experimental data published in ChEMBL document CHEMBL2311430, “Sirtuins as emerging anti-parasitic targets” (Eur J Med Chem, 2013).
Numbered stars: 1 amine (or outer) side, 2 acyl side, 3 side chain; on linkers, the order of the positions; unused ones are H or OH. Bridge positions count the residues as written; N and C are the ends. Square brackets hold non-standard residues; d marks the D form. Peptide text beside a SMILES is read from it. X1 = CC(C)CCCCCCCCC[C@H](CC(=O)[*:1])O[*:2]

Tested on: not listed separately
Experiment: Inhibition of Plasmodium falciparum NAD-dependent protein deacetylase Sir2A

Structure (SMILES)	IC50 [µM]
NC(=O)c1cccnc1 [NIACINAMIDE]	51.2

Molecular target: T1, Putative silent information regulator 2 (Leishmania infantum, UniProt A0A6L0XH39)
T1 sequence (A0A6L0XH39 whole entry): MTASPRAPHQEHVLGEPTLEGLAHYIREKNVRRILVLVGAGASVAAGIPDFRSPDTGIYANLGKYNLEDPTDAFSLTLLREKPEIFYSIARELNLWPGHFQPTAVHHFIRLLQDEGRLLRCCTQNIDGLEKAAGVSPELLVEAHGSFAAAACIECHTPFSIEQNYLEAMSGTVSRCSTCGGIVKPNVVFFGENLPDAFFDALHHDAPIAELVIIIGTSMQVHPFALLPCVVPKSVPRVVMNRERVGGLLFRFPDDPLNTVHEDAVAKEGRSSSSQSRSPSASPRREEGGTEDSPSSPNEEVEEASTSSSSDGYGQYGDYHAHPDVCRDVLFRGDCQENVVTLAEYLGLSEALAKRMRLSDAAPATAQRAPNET
Experiment: Inhibition of Leishmania infantum SIR2RP1

Structure (SMILES)	IC50 [µM]
O=C1c2cccc3cccc(c23)C(=O)N1CCCNCCCCCCCCCNCCCN1C(=O)c2cccc3cccc(c23)C1=O [BNIPDANON]	5.7
NC(=O)c1cccnc1 [NIACINAMIDE]	39.4
CC(C)CCCCCCCCC[C@@H]1CC(=O)N[C@@H](CCC(=O)O)C(=O)N[C@@H](CC(C)C)C(=O)N[C@H](CC(C)C)C(=O)N[C@@H](C(C)C)C(=O)N[C@@H](CC(=O)O)C(=O)N[C@H](CC(C)C)C(=O)N[C@@H](CC(C)C)C(=O)O1 [SURFACTIN] (EL[dL]VD[dL]L; linker N-C via X1)	35.2

Second part, the compound after the results:

IC50 [µM]	Structure (SMILES)
9.2	O=C1c2cccc3cccc(c23)C(=O)N1CCCNCCCCCCCCNCCCN1C(=O)c2cccc3cccc(c23)C1=O [BNIPDAOCT]
194	CC(NC(=O)c1ccccc1/N=C/c1c(O)ccc2ccccc12)c1ccccc1 (stereo unspecified) [SIRTINOL]
